Tests used:
K-Ras G12C = K-Ras G12C (Homo sapiens (Human), UniProt P01116+P62937, G12C); assay: Ras-Raf (BRAF RBD) disruption / FRET / MOA assay, KRAS G12C; type: biochemical; details: KRAS G12C; Ras-Raf disruption/FRET/MOA assay; read-out: IC50* KRAS G12C FRET data
Procedure, shortened: (§1)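 A 10-point, 3-fold dilution series topping at 30 μM final was incubated 3 h at 25° C with the Ras/cyclophilin A/BRAF RBD mixture.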

KRAS WT = KRAS WT (Homo sapiens (Human), UniProt P01116+P62937); assay: Ras-Raf (BRAF RBD) disruption / FRET / MOA assay, KRAS WT; type: biochemical; details: read-out: IC50* KRAS WT FRET data
Sequence of KRAS WT (P01116-2 other isoform, or with tags, fused parts or gaps): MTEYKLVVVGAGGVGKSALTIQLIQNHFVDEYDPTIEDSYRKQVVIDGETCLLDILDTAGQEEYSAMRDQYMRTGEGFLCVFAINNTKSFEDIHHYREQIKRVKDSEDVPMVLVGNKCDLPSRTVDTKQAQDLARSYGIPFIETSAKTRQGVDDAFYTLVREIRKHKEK
Sequence of KRAS WT (P62937 whole entry): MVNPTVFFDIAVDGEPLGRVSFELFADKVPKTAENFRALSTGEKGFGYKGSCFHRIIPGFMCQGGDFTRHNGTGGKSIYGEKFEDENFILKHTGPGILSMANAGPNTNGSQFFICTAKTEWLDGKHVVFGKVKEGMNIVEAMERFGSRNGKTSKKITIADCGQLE
Procedure, shortened: as §1

Sequence of K-Ras G12C (P01116-2 other isoform, or with tags, fused parts or gaps G12C): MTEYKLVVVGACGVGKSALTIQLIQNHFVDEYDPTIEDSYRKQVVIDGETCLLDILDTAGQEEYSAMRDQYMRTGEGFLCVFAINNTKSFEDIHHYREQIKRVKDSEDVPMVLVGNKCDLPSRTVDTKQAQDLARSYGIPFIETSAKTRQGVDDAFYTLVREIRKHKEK
Sequence of K-Ras G12C (P62937 whole entry): as the sequence (P62937 whole entry) above

Row | SMILES | IC50 (K-Ras G12C) [nM] | IC50 (KRAS WT) [nM]
1 | CCn1c(-c2cccnc2[C@H](C)OC)c2c3cc(ccc31)-c1cccc(c1)C[C@H](NC(=O)[C@H](C(C)C)N1CC[C@@]3(CCN(C(=O)C#C[C@H]4COCCN4C)C3)C1=O)C(=O)N1CCC[C@H](N1)C(=O)OCC(C)(C)C2 (atropisomer, axis not shown) [Example A551] | < 10 | 1000 to 10000
2 | CCn1c(-c2cccnc2[C@H](C)OC)c2c3cc(ccc31)-c1cccc(c1)C[C@H](NC(=O)[C@H](C(C)C)N1CO[C@@]3(CCN(C(=O)/C=C/CN(C)C)C3)C1=O)C(=O)N1CCC[C@H](N1)C(=O)OCC(C)(C)C2 (atropisomer, axis not shown) [Example A558] | 10 to 100 | 100 to 1000
3 | CO[C@@H](COC1CN(C(=O)C#CC(C)(C)N(C)C)C1)C(=O)N[C@H]1Cc2coc(n2)-c2ccc3c(c2)c(c(-c2cccnc2[C@H](C)OC)n3CC(F)(F)F)CC(C)(C)COC(=O)[C@@H]2CCCN(N2)C1=O (atropisomer, axis not shown) [Example A579] | < 10 | 1000 to 10000
4 | C=CC(=O)N1CCO[C@H]2CCN(C(=O)N(C)[C@H](C(=O)N[C@H]3Cc4nc(cs4)-c4ccc5c(c4)c(c(-c4cccnc4[C@H](C)OC)n5CC)CC(C)(C)COC(=O)[C@@H]4CCCN(N4)C3=O)C(C)C)C[C@H]21 (atropisomer, axis not shown) [Example A580] | 10 to 100 | 100 to 1000
5 | C=CC(=O)NCCN1CCN(C(=O)N(C)[C@H](C(=O)N[C@H]2Cc3nc(cs3)-c3ccc4c(c3)c(c(-c3cccnc3[C@H](C)OC)n4CC)CC(C)(C)COC(=O)[C@@H]3CCCN(N3)C2=O)C(C)C)CC1 (atropisomer, axis not shown) [Example A582] | 100 to 1000 | 100 to 1000
6 | CCn1c(-c2cccnc2[C@H](C)OC)c2c3cc(ccc31)-c1cccc(c1)C[C@H](NC(=O)[C@@H](CO[C@@H]1CCN(C(=O)C#CC(C)(C)N(C)C)C1)C(C)C)C(=O)N1CCC[C@H](N1)C(=O)OCC(C)(C)C2 (atropisomer, axis not shown) [Example A584] | 10 to 100 | > 10000
7 | CCn1c(-c2cccnc2[C@H](C)OC)c2c3cc(ccc31)-c1cc(CF)cc(c1)C[C@H](NC(=O)[C@@H](COC1CN(C(=O)C#CC(C)(C)N(C)C)C1)C(C)C)C(=O)N1CCC[C@H](N1)C(=O)OCC(C)(C)C2 (atropisomer, axis not shown) [Example A587] | 10 to 100 | > 10000
8 | CO[C@@H](C)c1ncccc1-c1c2c3cc(ccc3n1CC(F)(F)F)-c1cc(CF)cc(c1)C[C@H](NC(=O)[C@@H](COC1CN(C(=O)C#CC(C)(C)N(C)C)C1)C(C)C)C(=O)N1CCC[C@H](N1)C(=O)OCC(C)(C)C2 (atropisomer, axis not shown) [Example A589] | 10 to 100 | 1000 to 10000
9 | CO[C@@H](C)c1ncccc1-c1c2c3cc(ccc3n1CC(F)(F)F)-c1nc(ns1)C[C@H](NC(=O)[C@@H](COC1CN(C(=O)C#CC(C)(C)N(C)C)C1)C(C)C)C(=O)N1CCC[C@H](N1)C(=O)OCC(C)(C)C2 (atropisomer, axis not shown) [Example A590, (2R)-2-(((1-(4-(dimethylamino)-4-methylpent-2-ynoyl)azetidin-3-yl)oxy)methyl)-N-((6^3S,4S,Z)-1^2-(2-((S)-1-methoxyethyl)pyridin-3-yl)-10,10-dimethyl-5,7-dioxo-1^1-(2,2,2-trifluoroethyl)-6^1,6^2,6^3,6^4,6^5,6^6-hexahydro-1^1H-8-oxa-2(5,3)-thiadiazola-1(5,3)-indola-6(1,3)-pyridazinacycloundecaphane-4-yl)-3-methylbutanamide] | 10 to 100 | 1000 to 10000
10 | C=CC(=O)N1CCO[C@@]2(CCN(C(=O)N(C)[C@H](C(=O)N[C@H]3Cc4nc(cs4)-c4ccc5c(c4)c(c(-c4cccnc4[C@H](C)OC)n5CC(F)(F)F)CC(C)(C)COC(=O)[C@@H]4CCCN(N4)C3=O)C(C)C)C2)C1 (atropisomer, axis not shown) [Example A594] | 10 to 100 | 10 to 100
11 | C=CC(=O)N1CCO[C@H]2CN(C(=O)N(C)[C@H](C(=O)N[C@H]3Cc4cccc(n4)-c4ccc5c(c4)c(c(-c4cccnc4[C@H](C)OC)n5CC(F)(F)F)CC(C)(C)COC(=O)[C@@H]4CCCN(N4)C3=O)C(C)C)C[C@H]21 (atropisomer, axis not shown) [Example A595] | 10 to 100 | 100 to 1000
12 | C=CC(=O)N1CCO[C@H]2CN(C(=O)N(C)[C@H](C(=O)N[C@H]3Cc4cccc(n4)-c4ccc5c(c4)c(c(-c4cccnc4[C@H](C)OC)n5CC)CC(C)(C)COC(=O)[C@@H]4CCCN(N4)C3=O)C(C)C)C[C@H]21 (atropisomer, axis not shown) [Example A597] | 10 to 100 | 1000 to 10000
13 | C=CC(=O)N1CCO[C@H]2CN(C(=O)N(C)[C@H](C(=O)N[C@H]3Cc4cccc(c4)-c4ccc5c(c4)c(c(-c4cccnc4[C@H](C)OC)n5CC)CC(C)(C)COC(=O)[C@@H]4CCCN(N4)C3=O)C(C)C)C[C@H]21 (atropisomer, axis not shown) [Example A610] | 10 to 100 | 100 to 1000
14 | C=CC(=O)N1CC2(CCN2C(=O)N(C)[C@H](C(=O)N[C@H]2Cc3nc(n(C)n3)-c3ccc4c(c3)c(c(-c3cccnc3[C@H](C)OC)n4CC)CC(C)(C)COC(=O)[C@@H]3CCCN(N3)C2=O)C(C)C)C1 (atropisomer, axis not shown) [Example A612] | 10 to 100 | 100 to 1000
15 | CCn1c(-c2cccnc2[C@H](C)OC)c2c3cc(ccc31)N1CCC[C@@H](C[C@H](NC(=O)[C@H](C(C)C)N(C)C(=O)C3(F)CCN(C(=O)C#CC(C)(C)N(C)C)CC3)C(=O)N3CCC[C@H](N3)C(=O)OCC(C)(C)C2)C1 (atropisomer, axis not shown) [Example A615] | 10 to 100 | > 10000
16 | C=CC(=O)N(C)CCC1CCN(C(=O)N(C)[C@H](C(=O)N[C@H]2Cc3nc(cs3)-c3ccc4c(c3)c(c(-c3cccnc3[C@H](C)OC)n4CC)CC(C)(C)COC(=O)[C@@H]3CCCN(N3)C2=O)C(C)C)CC1 (atropisomer, axis not shown) [Example A621] | 10 to 100 | 10 to 100
17 | CCn1c(-c2cccnc2[C@H](C)OC)c2c3cc(ccc31)-c1csc(n1)C[C@H](NC(=O)[C@H](C(C)C)N(C)C(=O)N1C[C@H]3CN(C(=O)C#CC(C)(C)N(C)C)CC[C@H]31)C(=O)N1CCC[C@H](N1)C(=O)OCC(C)(C)C2 (atropisomer, axis not shown) [Example A624] | 10 to 100 | 100 to 1000
18 | CCn1c(-c2cccnc2[C@H](C)OC)c2c3cc(ccc31)-c1csc(n1)C[C@H](NC(=O)[C@H](F)COC1CN(C(=O)C#CC(C)(C)N(C)C)C1)C(=O)N1CCC[C@H](N1)C(=O)OCC(C)(C)C2 (atropisomer, axis not shown) [Example A627] | < 10 | > 10000
19 | C=C(C)C(=O)N1CC2(CCN(C(=O)N(C)[C@H](C(=O)N[C@H]3Cc4nc(cs4)-c4ccc5c(c4)c(c(-c4cccnc4[C@H](C)OC)n5CC)CC(C)(C)COC(=O)[C@@H]4CCCN(N4)C3=O)C(C)C)CC2)C1 (atropisomer, axis not shown) [Example A651] | 10 to 100 | 100 to 1000
20 | C=CC(=O)N(C)C[C@H]1CCN(C(=O)N(C)[C@H](C(=O)N[C@H]2Cc3nc(cs3)-c3ccc4c(c3)c(c(-c3cccnc3[C@H](C)OC)n4CC)CC(C)(C)COC(=O)[C@@H]3CCCN(N3)C2=O)C(C)C)C1 (atropisomer, axis not shown) [Example A653] | 10 to 100 | 100 to 1000
21 | C=CC(=O)N(C)C[C@@H]1CCN(C(=O)N(C)[C@H](C(=O)N[C@H]2Cc3nc(cs3)-c3ccc4c(c3)c(c(-c3cccnc3[C@H](C)OC)n4CC)CC(C)(C)COC(=O)[C@@H]3CCCN(N3)C2=O)C(C)C)C1 (atropisomer, axis not shown) [Example A654] | 100 to 1000 | 100 to 1000
22 | CCn1c(-c2cccnc2[C@H](C)OC)c2c3cc(ccc31)-c1cccc(c1)C[C@H](NC(=O)[C@@H](COC1CN(C(=O)C#CC(C)(C)N(C)CCO)C1)C(C)C)C(=O)N1CCC[C@H](N1)C(=O)OCC(C)(C)C2 (atropisomer, axis not shown) [Example A657] | 10 to 100 | > 10000
23 | CCn1c(-c2cccnc2[C@H](C)OC)c2c3cc(ccc31)-c1csc(n1)C[C@H](NC(=O)[C@@H](COC1CN(C(=O)C#CC(C)(C)N(C)C)C1)OC)C(=O)N1CCC[C@H](N1)C(=O)OCC(C)(C)C2 (atropisomer, axis not shown) [Example A660] | < 10 | 100 to 1000
24 | C=CC(=O)N1CC[C@@]2(CCN2C(=O)N(C)[C@H](C(=O)N[C@H]2Cc3nc(cs3)-c3ccc4c(c3)c(c(-c3cccnc3[C@H](C)OC)n4CC)CC(C)(C)COC(=O)[C@@H]3CCCN(N3)C2=O)C(C)C)C1 (atropisomer, axis not shown) [Example A661] | 10 to 100 | 100 to 1000
25 | CCn1c(-c2cccnc2[C@H](C)OC)c2c3cc(ccc31)C1=CCCN(C1)C[C@H](NC(=O)[C@@H](COC1CN(C(=O)C#CC(C)(C)N(C)C)C1)C(C)C)C(=O)N1CCC[C@H](N1)C(=O)OCC(C)(C)C2 (atropisomer, axis not shown) [Example A663, (2R)-2-(((1-(4-(dimethylamino)-4-methylpent-2-ynoyl)405yridine405-3-yl)oxy)methyl)-N-((6^3S,4S)-1^1-ethyl-1^2-(2-((S)-1-methoxyethyl)405yridine-3-yl)-10,10-dimethyl-5,7-dioxo-2^1,2^2,2^3,2^6,6^1,6^2,6^3,6^4,6^5,6^6-decahydro-1^1H-8-oxa-1(5,3)-indola-6(1,3)-pyridazina-2(5,1)-pyridinacycloundecaphane-4-yl)-3-methylbutanamide] | < 10 | > 10000
26 | CCn1c(-c2cccnc2[C@H](C)OC)c2c3cc(ccc31)-c1csc(n1)C[C@H](NC(=O)[C@H](C(C)C)N(C)C(=O)N1CCN(C(=O)/C=C/CN3CCOCC3)C3(CC3)C1)C(=O)N1CCC[C@H](N1)C(=O)OCC(C)(C)C2 (atropisomer, axis not shown) [Example A665] | 10 to 100 | 10 to 100

Source: US11566007B2, “Ras inhibitors” (Revolution Medicines, Inc., priority 2019, dated 2023)
